Laboratory results taken from patent publication US8883752B2, “5′ and 2′ BIS-substituted nucleosides and oligomeric compounds prepared therefrom” (Isis Pharmaceuticals, Inc., priority 2008, dated 2014).
Oligonucleotides are written 5' to 3', each unit as a sugar letter and its base; * is a phosphorothioate linkage, no mark a phosphodiester; rarer units and linkages stand in square brackets, end groups in braces. Plain capitals give the bases only. [DMAEAc-N] = 2'-O-dimethylaminoethyl acetamide sugar (N: the base); [5'R-Me-N] = (R)-5'-methyl-2'-deoxyribonucleoside (N: the base); {Py} = methylenephosphonate group, PO(OH)2CH2-; e = 2'-O-(2-methoxyethyl) (MOE); [5mC] = 5-methylcytosine; d = 2'-deoxy (DNA); m = 2'-O-methyl; {P} = phosphate; f = 2'-fluoro

Columns and labels:
[1] = In vivo stability: tissue level of intact compound (Example 66); design: species or system mouse; details: Balb/c mice
Description: […] were homogenized in a homogenation buffer (20 mM Tris, pH 8, 20 mM EDTA and 0.1 M NaCl in 0.5% NP-40) at time points 0, 5, 10, 20, 30, 40 and 60 minutes (Exception: 06/408877 at time points 0, 15, 30, 60, 120 and 240 mins, 06/409044, at time points 0, 0.5, 1, 2, 4, 8, and 18 hours). An internal standard (18/355868, a 27-mer, 2′-O-methoxyethyl-modified phosphorothioate oligonucleotide, or 19/116847, a 5-10-5 gapmer, 2′-O-methoxyethyl-modified phosphorothioate oligonucleotide) with concentration at 20 μg/g was added prior to extraction. Tissue samples were extracted with 70 μL of NH4OH and 240 μL of phenol/chloroform/isoamyl alcohol (25:24:1). The supernatant was removed after centrifugation at 14000 rpm for […]. The remaining extractant was vortexed with an additional 500 μL of water and the aqueous layer was removed and combined with the supernatant after centrifugation at 14000 rpm for 2 minutes.
Triethylammonium acetate solution at 1M (500 μL) was added to the supernatant. The aqueous layer of the mixture was loaded onto the pre-conditioned Biotage™ Phenyl Solid Phase Extraction Plate (SPE plate) after centrifugation at 9000 rpm for 20 minutes. The SPE plate was washed several times with water. The sample was then eluted with 1.5 mL of 1% TEA in 90% MeOH and filtered through the Protein Precipitation Plate (Phenomenex™). The elutent was evaporated to dryness and diluted to 200 μL with 50% quenching buffer (8 M urea, 50 mM EDTA) and water before sample injection.
An Agilent 1100 Series LC/MSD system was connected in-line to a mass spectrometry. Mass spectrometer was operated in the electrospray negative ionization mode. The nebulizer nitrogen gas was set at […] and the drying nitrogen gas was set at 12 L/min. The drying temperature was 325° C. Samples (25 μL/well) were introduced via an auto sampler and reversed-phase chromatography was carried out with an)(Bridge OST C18 2.5 μm 2.1 mm×50 mm HPLC column using a flow rate of 300 μL/min at 55° C. The ion pair buffers consisted of A: 5 mM tributylammonium acetate (TBAA) in 20% acetonitrile and B: […] TBAA in 90% acetonitrile and the loading buffer was 25 mM TBAA in 25% Acetonitrile. Separation was performed on a 30% to 70% B in 9 min and then 80% B in 11 min gradient.
Quantitative analysis of oligonucleotide and internal standard by extracted ion chromatograms of the most abundant ions was performed using MSD ChemStation software.
The in vivo stability of the three oligomeric compounds in Example 65 was evaluated. The tissue samples were obtained from the animals in which PTEN was assessed. Tissue samples were collected and prepared using the same technique described in Example 64. Quantitative analysis of the oligonucleotides standard were performed by extracted ion chromatograms in the most abundant charge state (−4) using Chemstation software. The tissue level (μg/g) of intact compound of ISIS 116847, 467074 and 467076 was measured and are provided below.

[2] = test system: PTEN mRNA; assay: PTEN mRNA levels in liver of Balb/c mice after single i.p. injection (Example 65); type: in vivo, mouse; details: 48 h; for Inhibition of PTEN in vivo (in words): 75 mg/kg; for % inhibition of PTEN mRNA expression: liver, single i.p. 75 mg/kg, normalized to saline-injected control
Description: In accordance with the present disclosure, oligomeric compounds were synthesized and tested for their ability to reduce PTEN expression in vivo at dose of 75 mg/kg. Six week old male Balb/c mice (Jackson Laboratory, Bar Harbor, Me.) were administered a single intraperitoneal (i.p) injection at 75 mg/kg of ISIS 467074 having a 5′-phosphate group and […] having a 5′-methylenephosphonate group, (PO(OH)2CH2—). A 5-10-5 gapped oligomer, ISIS 116847 having 2′-O-MOE modified nucleosides in wings with a 5′-phosphorothioate group was included for comparison.
Each dose group consisted of four animals. The mice were sacrificed 48 hours following the final administration to determine the PTEN mRNA levels in liver using real-time PCR and RIBOGREEN® RNA quantification reagent (Molecular Probes, Inc. Eugene, Oreg.) according to standard protocols. PTEN mRNA levels were determined relative to total RNA (using Ribogreen), prior to normalization to saline-treated control. Results are listed below as the average % inhibition of PTEN mRNA expression for each treatment group, normalized to saline-injected control.

[3] = Modified ssRNA 5′-phosphate serum stability assay; type: in vitro ADME; details: 10 μM in 95% fresh mouse serum, 37° C., 0-24 h, LC/MS
Excerpt: A serum stability assay is useful for evaluating the stability of oligomeric compounds in the presences of nucleases and other enzymes found in serum. For example, the stability of a 5′-terminal phosphate group of an oligomeric compound can be evaluated by assessing the ability of the 5′-terminal phosphate group to remain attached to the oligomeric compound in the presence of serum. Accordingly, a serum stability assay was employed to evaluate the stability of modified ssRNAs having a 5′-terminal phosphate group.
Various modified ssRNAs, shown below, having a 5′-terminal phosphate group (10 μM) were dissolved in 95% of fresh mouse serum and incubated at 37° C. Aliquots of serum (100 μL) were removed after 0, 1, 3, 6 or 24 hours of incubation times. The serum samples were immediately quenched and snap frozen. The samples were extracted by the strong anion exchange (SAX) and octadecylsilyl (C-18) columns. For each incubation time, the amount of full length modified ssRNA having a 5′-terminal phosphate group was determined by LC/MS, and the half-life of the full length modified ssRNA having a 5′ terminal phosphate group was calculated. The results are expressed as half-time (T1/2) in the table below.

| Substance | Tissue Level of intact compound ([1]; 75 mg/kg i.p., 48 h time point, LC-MS) [µg/g] | Level of intact compound in tissue (in words) ([1]; 75 mg/kg, 48 h) | Inhibition of PTEN in vivo (in words) [2] | % inhibition of PTEN mRNA expression [2] [%] | T1/2 (h) of full length modified ssRNA having a 5′-terminal phosphate group [3] [h] | Compound lacking the 5′-phosphate in tissue ([1]; 75 mg/kg, 48 h) |
| --- | --- | --- | --- | --- | --- | --- |
| ISIS 116847: 5-10-5 gapped oligomer with 2′-O-MOE wings, included for comparison: meCeTeGemeCeTeAGmeCmeCTmeCTGGATeTeTeGeAe (e[5mC]*eT*eG*e[5mC]*eT*dA*dG*d[5mC]*d[5mC]*dT*d[5mC]*dT*dG*dG*dA*eT*eT*eT*eG*eA) [reference compound] | 131.1 | present at high levels | potent inhibitor of PTEN | 76 |  |  |
| ISIS 398701: modified ssRNA, SEQ ID NO 09: P-USfUfGfUfCfUfCfUfGfGfUfCfCfUfUfAfCfUfUf (antisense UUGUCUCUGGUCCUUACUU; 5'-phosphate, 2'-fluoro, phosphorothioate, chemistry not fully specified) |  |  |  |  | 18.2 |  |
| ISIS 404320: modified ssRNA targeting PTEN, SEQ ID NO 05: P-UfUfGfUfCfUfCfUfGfGfUfCfCfUfUfAfCfUfUfAeAe (antisense {P}-fUfUfGfUfCfUfCfUfGfGfUfCfCfU*fU*fA*fC*fU*fU*eA*eA; single-stranded RNA for RNAi) |  |  |  |  | 4 |  |
| ISIS 422391: modified ssRNA, SEQ ID NO 06: P-TdUfGfUfCfUfCfUfGfGfUfCfCfUfUfAfCfUfUfAeAe; d = 2′-O-DMAEAc (antisense {P}-[DMAEAc-T]fUfGfUfCfUfCfUfGfGfUfCfCfU*fU*fA*fC*fU*fU*eA*eA; single-stranded RNA for RNAi) |  |  |  |  | 6.5 |  |
| ISIS 432356: modified ssRNA, SEQ ID NO 06: P-TRUfGfUfCfUfCfUfGfGfUfCfCfUfUfAfCfUfUfAeAe; R = (R)-5′-methyl-2′-deoxyribonucleoside (antisense {P}-[5'R-Me-T]fUfGfUfCfUfCfUfGfGfUfCfCfU*fU*fA*fC*fU*fU*eA*eA; single-stranded RNA for RNAi) |  |  |  |  | 8.7 |  |
| ISIS 467074: modified ssRNA, SEQ ID NO 06: P-TScUfGmUfCmUfCmUfGmGfUmCfCmUfUmAfCmUfUmAeAe (antisense TUGUCUCUGGUCCUUACUUAA; 5'-phosphate, modified sugars, 2'-F/2'-OMe, MOE, chemistry not fully specified) |  | not detected | lowest amount of PTEN reduction | 11 |  | lacking the 5′-phosphate was detected |
| ISIS 467076: 5′-methylenephosphonate ssRNA, SEQ ID NO 05: Py-meUmUfGmUfCmUfCmUfGmGfUmCfCmUfUmAfCmUfUmAeAe (antisense {Py}-mT*fU*mGfU*mCfU*mCfU*mGfG*mUfC*mCfU*mU*fA*mC*fU*mU*eA*eA; further chemistry not fully specified) |  | present at a lower concentration | smaller inhibition of PTEN | 16 |  |  |
